Experiment [1] concerns the target T1, Adenosine receptor A3 (Homo sapiens) (UniProt P0DMS8).
T1 sequence (whole entry): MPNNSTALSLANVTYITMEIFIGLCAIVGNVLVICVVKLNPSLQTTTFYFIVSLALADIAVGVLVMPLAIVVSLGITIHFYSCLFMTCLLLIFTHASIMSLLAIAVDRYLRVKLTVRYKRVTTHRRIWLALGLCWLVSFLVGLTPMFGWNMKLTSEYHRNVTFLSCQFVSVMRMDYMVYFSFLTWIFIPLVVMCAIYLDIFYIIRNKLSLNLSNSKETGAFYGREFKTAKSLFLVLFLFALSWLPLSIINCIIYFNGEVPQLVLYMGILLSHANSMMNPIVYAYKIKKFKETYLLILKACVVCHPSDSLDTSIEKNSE
Briefly: Displacement of [3H]-MRE-3008-F20 from human adenosine A3 receptor expressed in CHO cells at 10 uM after 120 mins by scintillation counting. It counts as cell-based.

In experiment [2] the target is T2, Adenosine receptor A1 (Homo sapiens) (UniProt P30542).
T2 sequence (whole entry): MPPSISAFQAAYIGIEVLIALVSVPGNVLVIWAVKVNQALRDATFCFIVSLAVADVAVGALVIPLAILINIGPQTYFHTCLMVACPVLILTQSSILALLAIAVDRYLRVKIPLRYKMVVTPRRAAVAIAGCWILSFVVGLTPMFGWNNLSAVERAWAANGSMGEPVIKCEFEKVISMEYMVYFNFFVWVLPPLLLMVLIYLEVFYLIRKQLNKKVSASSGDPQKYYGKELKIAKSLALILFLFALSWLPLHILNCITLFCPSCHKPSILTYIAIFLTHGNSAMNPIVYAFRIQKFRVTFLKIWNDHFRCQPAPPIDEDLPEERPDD
Put plainly: Ratio of PD81723 to compound for positive allosteric enhancement of human cloned adenosine A1 receptor expressed in CHO cells assessed as inhibition of forskolin-induced cAMP accumulation at 10 uM using [3H]-cAMP by scintillation counting. It counts as functional, cell-based. Background: cAMP levels reflect the balance of adenylyl cyclase and phosphodiesterase activity.

Experiment [3] has as its target T2, Adenosine receptor A1 (Homo sapiens). Briefly: Binding affinity to human adenosine A1 receptor expressed in CHO cells assessed as fold Ki shift of CCPA at 10 uM after 90 mins by [3H]-CCPA displacement assay relative to control. It counts as cell-based.
Experiment [4] shares this target. Briefly: Positive allosteric enhancement of human cloned adenosine A1 receptor expressed in CHO cells assessed as inhibition of forskolin-induced cAMP accumulation at 100 nM using [3H]-cAMP by scintillation counting relative to control in presence of 1 pM of CCPA. It counts as functional, cell-based.
Experiment [5] shares this target. Briefly: Displacement of [3H]DPCPX from human adenosine A1 receptor expressed in CHO cells at 10 uM after 120 mins by scintillation counting. It counts as cell-based.
A short description of experiment [6]: Displacement of [3H]-ZM241385 from human adenosine A2 receptor expressed in CHO cells at 10 uM after 120 mins by scintillation counting. It counts as cell-based.
Experiment [7] deals with T2, Adenosine receptor A1 (Homo sapiens). Briefly: Binding affinity to human adenosine A1 receptor expressed in CHO cells assessed as fold Bmax shift of [3H]-CCPA at 10 uM after 90 mins by [3H]-CCPA binding assay relative to control. In kind it is cell-based.
Experiment [8] has the same target. Put plainly: Positive allosteric enhancement of human cloned adenosine A1 receptor expressed in CHO cells assessed as inhibition of forskolin-induced cAMP accumulation at 10 uM using [3H]-cAMP by scintillation counting relative to control. In kind it is functional, cell-based.

Each structure is given as a SMILES string.

As to `COc1ccc(-c2sc(N)c(C(=O)c3ccc(Cl)cc3)c2Cc2ccc(Cl)cc2)cc1`, the inhibition – broadly, the change of the read-out against control, counted positive when it falls – in experiment [1] is less than 10%; in experiment [4] it was 48%; in experiment [5] it was less than 10%; in experiment [6], less than 10%; in experiment [8] it was 49%. For the same compound, in experiment [2], the Ratio came out at 3. The fold change (FC) in experiment [3] is 3.9; in experiment [7], 5.

For the compound `CSc1ccc(Cc2c(-c3ccc(F)cc3)sc(N)c2C(=O)c2ccc(Cl)cc2)cc1`, the inhibition was less than 10% in experiment [1]; 55% in experiment [4]; less than 10% in experiment [5]; less than 10% in experiment [6]; 52% in experiment [8]. Also, the Ratio in experiment [2] amounted to 3. Also, the fold change (FC) in experiment [3] worked out at 5.2; in experiment [7] it was 5.3.

As for `COc1ccc(Cc2c(-c3ccccc3)sc(N)c2C(=O)c2ccc(Cl)cc2)cc1`, the inhibition in experiment [1] is less than 10%; in experiment [4], 74%; in experiment [5] it was less than 10%; in experiment [6], less than 10%; in experiment [8] it was 71%. The Ratio in experiment [2] came out at 3. For the same compound, the fold change (FC) in experiment [3] amounted to 8.9; in experiment [7], 9.4.

With `COc1ccc(Cc2c(-c3ccc(OC)cc3)sc(N)c2C(=O)c2ccc(Cl)cc2)cc1`, the inhibition was less than 10% in experiment [1]; 50% in experiment [4]; less than 10% in experiment [5]; less than 10% in experiment [6]; 52% in experiment [8]. Further, the Ratio in experiment [2] stood at 3. The fold change (FC) worked out at 4.6 in experiment [3] and 5.1 in experiment [7].

For the compound `COc1cccc(Cc2c(-c3ccccc3)sc(N)c2C(=O)c2ccc(Cl)cc2)c1`, the inhibition in experiment [1] is less than 10%; in experiment [4], 63%; in experiment [5], less than 10%; in experiment [6] it was less than 10%; in experiment [8], 66%. The Ratio in experiment [2] came to 3. The figures for the fold change (FC) in experiment [3] and in experiment [7] were 6.9 and 7.3, respectively.

For the compound `Nc1sc(-c2ccc(Cl)cc2)c(Cc2ccccc2)c1C(=O)c1ccc(Cl)cc1`, the inhibition in experiment [1] was less than 10%; in experiment [4], 67%; in experiment [5], less than 10%; in experiment [6], less than 10%; in experiment [8], 69%. For the same compound, the Ratio in experiment [2] was found to be 3. For the same compound, the fold change (FC) was found to be 8.4 in experiment [3] and 7.2 in experiment [7].

For `Nc1sc(-c2ccccc2)c(Cc2ccc(Cl)cc2)c1C(=O)c1ccc(Cl)cc1`, the inhibition was less than 10% in experiment [1]; 64% in experiment [4]; less than 10% in experiment [5]; less than 10% in experiment [6]; 61% in experiment [8]. In addition, the Ratio in experiment [2] amounted to 3. The results for the fold change (FC) in experiment [3] and in experiment [7] were 5.6 and 6.4, respectively.

Consider `Nc1sc(-c2ccccc2)c(Cc2ccc(C(F)(F)F)cc2)c1C(=O)c1ccc(Cl)cc1`, for which the inhibition was less than 10% in experiment [1]; 66% in experiment [4]; less than 10% in experiment [5]; less than 10% in experiment [6]; 69% in experiment [8]. In addition, the Ratio in experiment [2] is 3. The fold change (FC) in experiment [3] worked out at 8.9; in experiment [7], 9.1.

On to `COc1ccc(Cc2c(-c3ccccc3)sc(N)c2C(=O)c2ccc(Cl)cc2)cc1C`, for which the inhibition was less than 10% in experiment [1]; 66% in experiment [4]; less than 10% in experiment [5]; less than 10% in experiment [6]; 66% in experiment [8]. Besides, the Ratio in experiment [2] amounted to 3. Also, the fold change (FC) in experiment [3] came out at 6.1; in experiment [7], 8.1.

With `Nc1sc(-c2ccc(F)cc2)c(Cc2ccc(F)cc2)c1C(=O)c1ccc(Cl)cc1`, the inhibition in experiment [1] was less than 10%; in experiment [4], 41%; in experiment [5] it was less than 10%; in experiment [6], less than 10%; in experiment [8], 45%. Moreover, the Ratio in experiment [2] came out at 3. The fold change (FC) in experiment [3] turned out to be 3.7; in experiment [7], 4.8.

Regarding `Nc1sc(-c2ccc(F)cc2)c(Cc2ccc(Cl)cc2)c1C(=O)c1ccc(Cl)cc1`, the inhibition was less than 10% in experiment [1]; 55% in experiment [4]; less than 10% in experiment [5]; less than 10% in experiment [6]; 53% in experiment [8]. Besides, the Ratio in experiment [2] is 3. Also, the fold change (FC) in experiment [3] was 4.1; in experiment [7], 5.3.

With `Nc1sc(-c2ccc(Cl)cc2)c(Cc2ccc(F)cc2)c1C(=O)c1ccc(Cl)cc1`, the inhibition is less than 10% in experiment [1]; 73% in experiment [4]; less than 10% in experiment [5]; less than 10% in experiment [6]; 75% in experiment [8]. Also, the Ratio in experiment [2] was 3. The values for the fold change (FC) in experiment [3] and in experiment [7] were 9.5 and 9.1, respectively.

Take `COc1ccc(Cc2c(-c3ccc(F)cc3)sc(N)c2C(=O)c2ccc(Cl)cc2)cc1`: the inhibition is less than 10% in experiment [1]; 59% in experiment [4]; less than 10% in experiment [5]; less than 10% in experiment [6]; 58% in experiment [8]. In experiment [2], the Ratio was found to be 3. For the same compound, the values for the fold change (FC) in experiment [3] and in experiment [7] were 5.4 and 6.3, respectively.

On to `Nc1sc(-c2ccccc2)c(Cc2ccc(F)cc2)c1C(=O)c1ccc(Cl)cc1`, for which the inhibition in experiment [1] was less than 10%; in experiment [4], 57%; in experiment [5] it was less than 10%; in experiment [6] it was less than 10%; in experiment [8] it was 58%. Besides, the Ratio in experiment [2] worked out at 3. The fold change (FC) in experiment [3] amounted to 5.4; in experiment [7] it was 6.3.

For the compound `COc1ccc(-c2sc(N)c(C(=O)c3ccc(Cl)cc3)c2Cc2ccccc2)cc1`, the inhibition in experiment [1] is less than 10%; in experiment [4], 47%; in experiment [5], less than 10%; in experiment [6] it was less than 10%; in experiment [8] it was 46%. Further, in experiment [2], the Ratio was found to be 3. Besides, the fold change (FC) is 3.5 in experiment [3] and 4.8 in experiment [7].

As for `COc1ccc(Cc2c(-c3ccc(Cl)cc3)sc(N)c2C(=O)c2ccc(Cl)cc2)cc1`, the inhibition was less than 10% in experiment [1]; 67% in experiment [4]; less than 10% in experiment [5]; less than 10% in experiment [6]; 70% in experiment [8]. Further, the Ratio in experiment [2] came to 3. The fold change (FC) in experiment [3] stood at 6.6; in experiment [7], 8.5.

Consider `CCOc1ccc(Cc2c(-c3ccccc3)sc(N)c2C(=O)c2ccc(Cl)cc2)cc1`, for which the inhibition was less than 10% in experiment [1]; 69% in experiment [4]; less than 10% in experiment [5]; less than 10% in experiment [6]; 68% in experiment [8]. Also, the Ratio in experiment [2] turned out to be 3. For the same compound, the fold change (FC) in experiment [3] came out at 8; in experiment [7], 9.1.

On to `COc1ccc(Cc2c(-c3ccccc3)sc(N)c2C(=O)c2ccc(Cl)cc2)c(OC)c1`, for which the inhibition in experiment [1] was less than 10%; in experiment [4] it was 53%; in experiment [5], less than 10%; in experiment [6] it was less than 10%; in experiment [8] it was 52%. Also, in experiment [2], the Ratio is 3. The fold change (FC) in experiment [3] amounted to 4.2; in experiment [7], 5.6.

Regarding `COc1cc(Cc2c(-c3ccccc3)sc(N)c2C(=O)c2ccc(Cl)cc2)cc(OC)c1OC`, the inhibition in experiment [1] is less than 10%; in experiment [4], 43%; in experiment [5], less than 10%; in experiment [6], less than 10%; in experiment [8], 47%. Further, the Ratio in experiment [2] was determined as 3. Also, the figures for the fold change (FC) in experiment [3] and in experiment [7] were 3.8 and 4.3, respectively.

In the case of `Nc1sc(-c2ccccc2)c(Cc2ccc(OC(F)(F)F)cc2)c1C(=O)c1ccc(Cl)cc1`, the inhibition is less than 10% in experiment [1]; 69% in experiment [4]; less than 10% in experiment [5]; less than 10% in experiment [6]; 68% in experiment [8]. Besides, the Ratio in experiment [2] came to 3. In addition, the values for the fold change (FC) in experiment [3] and in experiment [7] were 6.6 and 8.2, respectively.

The values are drawn from ChEMBL document CHEMBL3612058, “Synthesis and biological evaluation of a new series of 2-amino-3-aroyl thiophene derivatives as agonist allosteric modulators of the A1 adenosine receptor. A position-dependent effect study” (Eur J Med Chem, 2015).
